# Assay results reported in publication PMC4648443, “Protein evolution analysis of S-hydroxynitrile lyase by complete sequence design utilizing the INTMSAlign software” (Scientific Reports, 2015).
# Like-named read-outs stand apart in the source and are kept apart here.
# What was measured:
# [1] = system: T1, HNL54; assay: benzaldehyde formation at […] nm; type: biochemical, synthetic construct; conditions: 100 mM citrate pH 5.5, 30 °C
# T1 construct: synthetic gene in pET28b (NdeI/XhoI), E. coli BL21(DE3), Ni-Sepharose and gel filtration
# [2] = system: T2, HNL30; assay: benzaldehyde formation at […] nm; type: biochemical, synthetic construct; conditions: 100 mM citrate pH 5.5, 30 °C
# T2 construct: pET28b (NdeI/XhoI), E. coli BL21(DE3), Ni-Sepharose and gel filtration
SMILES,Km ([1]; read-out: Km /) [µM],Km ([2]; read-out: Km /) [µM],Km ([1]; read-out: HNL54 / Km) [µM],Km ([2]; read-out: HNL30 / Km) [µM]
N#CC(O)c1ccccc1 (racemic) [rac-Man],3200 ± 300,800 ± 100,,
N#C[C@@H](O)c1ccccc1 [(S)-Man],,,610,400
N#C[C@H](O)c1ccccc1 [(R)-Man],,,370,5000
